In patent US10364245B2 (CHIESI FARMACEUTICI S.p.A., priority 2017, dated 2019) one finds IC50 data, which are given here for 14 compounds.

Each structure is given as a SMILES string. Structures can show the parent of a compound that is named as a salt.

The target of assay [1] is T1, p38 alpha (Homo sapiens, UniProt Q16539).
T1 construct: purchased Invitrogen PV3304
Kind of assay: P38 alpha enzyme inhibition assay (Alphascreen kinase activity assay). It counts as biochemical. To be noted: 100 pM p38 alpha, 2 hours preincubation at 25° C., 250 μM ATP, ATF-2 fusion protein; read-out: p38α inhibition. A digest of the protocol:
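100 pM p38 alpha preincubated 2 h at 25 °C with compound and 0.3 μg/ml ATF-2 fusion substrate (HEPES pH 7.5, MgCl2, 1% DMSO). Reaction started with 250 μM ATP, run 1 h at 25 °C, stopped with EDTA; phospho-ATF2 detected by AlphaScreen luminescence. IC50 from concentration-response curves.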
A general note: Alpha assays give light when donor and acceptor beads are brought close together.

The subject of assay [2] is Peripheral Blood Mononuclear Cells (PBMCs), TNFα release. As to the kind of experiment: LPS-stimulated PBMC TNFα release assay. The class given is cell-based. The following applies: human PBMC, LPS (10 ng/ml), 18 h, compound 1 h before LPS; read-out: LPS-stimulated PBMC TNFα release inhibition. In a few lines: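 Human PBMCs from healthy donors, serum-starved 3 h, then pre-incubated 1 h at 37 °C with compound in 1% FBS medium before LPS (10 ng/ml) for 18 h. Supernatant TNFα measured by MSD; IC50 from dose-response as % inhibition of control, at least three experiments.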

T1 sequence (Q16539 whole entry): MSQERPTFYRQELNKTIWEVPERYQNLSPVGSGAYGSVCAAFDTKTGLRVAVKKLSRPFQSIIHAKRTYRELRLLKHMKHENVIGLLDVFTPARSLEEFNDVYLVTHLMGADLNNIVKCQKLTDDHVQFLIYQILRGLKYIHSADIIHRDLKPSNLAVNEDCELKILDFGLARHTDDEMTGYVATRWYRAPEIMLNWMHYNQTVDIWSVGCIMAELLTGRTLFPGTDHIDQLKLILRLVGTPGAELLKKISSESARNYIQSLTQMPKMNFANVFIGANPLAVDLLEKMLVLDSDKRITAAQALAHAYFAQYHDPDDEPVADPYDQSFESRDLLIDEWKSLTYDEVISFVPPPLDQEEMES

Consider `CN1CCC[C@]1(C)c1nnc2ccc(O[C@@H]3CC[C@H](NC(=O)Nc4cc(C(C)(C)C)cc(C#N)n4)c4ccccc43)cn12` [Example 39, 1-(4-(tert-Butyl)-6-cyanopyridin-2-yl)-3-((1S,4R)-4-((3-((R)-1,2-dimethylpyrrolidin-2-yl)-[1,2,4]triazolo[4,3-a]pyridin-6-yl)oxy)-1,2,3,4-tetrahydronaphthalen-1-yl)urea], for which the IC50 was 1 to 10 nM in assay [1] and less than 1 nM in assay [2].

Regarding `CN1CCC[C@@]1(C)c1nnc2ccc(O[C@@H]3CC[C@H](NC(=O)Nc4cc(C(C)(C)C)ccn4)c4ccccc43)cn12` [Example 44, 1-(4-(tert-Butyl)pyridin-2-yl)-3-((1S,4R)-4-((3-((S)-1,2-dimethylpyrrolidin-2-yl)-[1,2,4]triazolo[4,3-a]pyridin-6-yl)oxy)-1,2,3,4-tetrahydronaphthalen-1-yl)urea], the IC50 in assay [1] was less than 1 nM; in assay [2], 1 to 5 nM.

Consider `CNC(=O)c1nc(NC(=O)N[C@H]2CC[C@@H](Oc3ccc4nnc([C@]5(C)CCCN5C)n4c3)c3ccccc32)cc(C(C)(C)C)n1` [Example 38, 4-(tert-Butyl)-6-(3-((1S,4R)-4-((3-((S)-1,2-dimethylpyrrolidin-2-yl)-[1,2,4]triazolo[4,3-a]pyridin-6-yl)oxy)-1,2,3,4-tetrahydronaphthalen-1-yl)ureido)-N-methylpyrimidine-2-carboxamide], for which the IC50 in assay [1] and in assay [2] was less than 1 nM throughout.

As to `CN1CCC[C@@]1(C)c1nnc2ccc(O[C@@H]3CC[C@H](NC(=O)Nc4cc(C(=O)NCCO)nc(C(C)(C)C)c4)c4ccccc43)cn12` [Example 61, 6-(tert-Butyl)-4-(3-((1S,4R)-4-((3-((S)-1,2-dimethylpyrrolidin-2-yl)-[1,2,4]triazolo[4,3-a]pyridin-6-yl)oxy)-1,2,3,4-tetrahydronaphthalen-1-yl)ureido)-N-(2-hydroxyethyl)picolinamide], the IC50 in assay [1] lay within 1 to 10 nM; in assay [2], 1 to 5 nM.

Take `CN(C)CCOCCNC(=O)c1nc(NC(=O)N[C@H]2CC[C@@H](Oc3ccc4nnc(C(C)(C)C)n4c3)c3ccccc32)cc(C(C)(C)C)n1` [Example 130, 4-(tert-butyl)-6-(3-((1S,4R)-4-((3-(tert-butyl)-[1,2,4]triazolo[4,3-a]pyridin-6-yl)oxy)-1,2,3,4-tetrahydronaphthalen-1-yl)ureido)-N-(2-(2-(dimethylamino)ethoxy)-ethyl)pyrimidine-2-carboxamide]: the results for the IC50 in assay [1] and in assay [2] were less than 1 nM and greater than 5 nM, respectively.

In the case of `CN(CCNC(=O)c1nc(NC(=O)N[C@H]2CC[C@@H](Oc3ccc4nnc(C(C)(C)C)n4c3)c3ccccc32)cc(C(C)(C)C)n1)C1COC1` [Example 107, 4-(tert-butyl)-6-(3-((1S,4R)-4-((3-(tert-butyl)-[1,2,4]triazolo[4,3-a]pyridin-6-yl)oxy)-1,2,3,4-tetrahydronaphthalen-1-yl)ureido)-N-(2-(methyl(oxetan-3-yl)amino)ethyl)-pyrimidine-2-carboxamide], the IC50 in assay [1] was less than 1 nM; in assay [2], greater than 5 nM.

`COC(C)(C)c1nnc2ccc(O[C@@H]3CC[C@H](NC(=O)Nc4cc(C(C)(C)C)nc(C(=O)NCCN5CCOCC5)n4)c4ccccc43)cn12` [Example 95, 4-(tert-butyl)-6-(3-((1S,4R)-4-((3-(2-methoxypropan-2-yl)-[1,2,4]triazolo[4,3-a]pyridin-6-yl)oxy)-1,2,3,4-tetrahydronaphthalen-1-yl)ureido)-N-(2-morpholinoethyl)-pyrimidine-2-carboxamide]: the results for the IC50 in assay [1] and in assay [2] were 1 to 10 nM and greater than 5 nM, respectively.

Turning to `CN(CCO)CCNC(=O)c1nc(NC(=O)N[C@H]2CC[C@@H](Oc3ccc4nnc(C(C)(C)C)n4c3)c3ccccc32)cc(C(C)(C)C)n1` [Example 77, 4-(tert-butyl)-6-(3-((1S,4R)-4-((3-(tert-butyl)-[1,2,4]triazolo[4,3-a]pyridin-6-yl)oxy)-1,2,3,4-tetrahydronaphthalen-1-yl)ureido)-N-(2-((2-hydroxyethyl)(methyl)-amino)ethyl)pyrimidine-2-carboxamide], the IC50 in assay [1] was less than 1 nM; in assay [2], 1 to 5 nM.

For the compound `CSc1nc(NC(=O)N[C@H]2CC[C@@H](Oc3ccc4nnc([C@]5(C)CCCN5C)n4c3)c3ccccc32)cc(C(C)(C)C)n1` [Example 49, 1-(6-(tert-Butyl)-2-(methylthio)pyrimidin-4-yl)-3-((1S,4R)-4-((3-((S)-1,2-dimethylpyrrolidin-2-yl)-[1,2,4]triazolo[4,3-a]pyridine-6-yl)oxy)-1,2,3,4-tetrahydronaphthalen-1-yl)urea], the IC50 was 1 to 10 nM in assay [1] and greater than 5 nM in assay [2].

Consider `CN(C)CCNC(=O)c1cc(NC(=O)N[C@H]2CC[C@@H](Oc3ccc4nnc(C(C)(C)N5CCN(C)CC5)n4c3)c3ccccc32)cc(C(C)(C)C)n1` [Example 199, 6-(tert-Butyl)-N-(2-(dimethylamino)ethyl)-4-(3-((1S,4R)-4-((3-(2-(4-methylpiperazin-1-yl)propan-2-yl)-[1,2,4]triazolo[4,3-a]pyridin-6-yl)oxy)-1,2,3,4-tetrahydronaphthalen-1-yl)ureido)picolinamide formate salt], for which the IC50 is 1 to 10 nM in assay [1] and greater than 5 nM in assay [2].

In the case of `CCC(CC)c1nnc2ccc(O[C@@H]3CC[C@H](NC(=O)Nc4cc(C(C)(C)C)nc(C(=O)NCCN(C)C)n4)c4ccccc43)cn12` [Example 5, 4-(tert-Butyl)-N-(2-(dimethylamino)ethyl)-6-(3-((1S,4R)-4-((3-(pentan-3-yl)-[1,2,4]triazolo[4,3-a]pyridin-6-yl)oxy)-1,2,3,4-tetrahydronaphthalen-1-yl)ureido)pyrimidine-2-carboxamide], the IC50 in assay [1] was less than 1 nM; in assay [2] it was 1 to 5 nM.

As to `CN(C)CC(=O)NCc1nc(NC(=O)N[C@H]2CC[C@@H](Oc3ccc4nnc(C(C)(C)C)n4c3)c3ccccc32)cc(C(C)(C)C)n1` [Example 24, N-((4-(tert-Butyl)-6-(3-((1S,4R)-4-((3-(tert-butyl)-[1,2,4]triazolo[4,3-a]pyridin-6-yl)oxy)-1,2,3,4-tetrahydronaphthalen-1-yl)ureido)pyrimidin-2-yl)methyl)-2-(dimethylamino)acetamide], the IC50 in assay [1] is less than 1 nM; in assay [2] it was greater than 5 nM.

Turning to `CN1CCN(C(C)(C)CNC(=O)c2nc(NC(=O)N[C@H]3CC[C@@H](Oc4ccc5nnc(C(C)(C)C)n5c4)c4ccccc43)cc(C(C)(C)C)n2)CC1` [Example 151, 4-(tert-butyl)-6-(3-((1S,4R)-4-((3-(tert-butyl)-[1,2,4]triazolo[4,3-a]pyridin-6-yl)oxy)-1,2,3,4-tetrahydronaphthalen-1-yl)ureido)-N-(2-methyl-2-(4-methylpiperazin-1-yl)propyl)pyrimidine-2-carboxamide], the IC50 is less than 1 nM in assay [1] and greater than 5 nM in assay [2].

As for `CN(C)C1(CNC(=O)c2nc(NC(=O)N[C@H]3CC[C@@H](Oc4ccc5nnc(C(C)(C)C)n5c4)c4ccccc43)cc(C(C)(C)C)n2)CC1` [Example 159, 4-(tert-butyl)-6-(3-((1S,4R)-4-((3-(tert-butyl)-[1,2,4]triazolo[4,3-a]pyridin-6-yl)oxy)-1,2,3,4-tetrahydronaphthalen-1-yl)ureido)-N-((1-(dimethylamino)-cyclopropyl)methyl)-pyrimidine-2-carboxamide], the values for the IC50 in assay [1] and in assay [2] were 1 to 10 nM and greater than 5 nM, respectively.
